{
  "source": "ChEMBL document CHEMBL5252590",
  "about": "“Structure-based design of novel melanin-concentrating hormone receptor-1 ligands based on saturated nitrogen-containing heterocycles” (Bioorg Med Chem Lett, 2023)",
  "data": [
    {"experiment": "(§1) Displacement of [125I]MCH from MCHR1 expressed in CHO cell membranes assessed as inhibition constant", "set-up": "species or system Cricetulus griseus, Membrane", "conditions": "not given; call rule not given here", "values": [
      {"smiles": "O=C(c1ccc(-c2ccccc2)cc1)N1CCCC12CCCN(Cc1ccc3ccccc3c1)C2", "note": "(configuration not stated)", "Ki": "Not Active"}
    ]},
    {"experiment": "as §1", "set-up": "species or system Cricetulus griseus, Membrane", "conditions": "read-out: Ki", "units": {"Ki": "nM"}, "values": [
      {"smiles": "O=C(c1ccc(F)c(F)c1)N1CCC2(CCCN(Cc3ccc4ccccc4c3)C2)C1", "note": "(configuration not stated)", "Ki": 1900},
      {"smiles": "O=C(COc1ccc(Cl)cc1)N1CCC2(CCCN(Cc3ccc4c(c3)OCO4)C2)C1", "note": "(configuration not stated)", "Ki": 2560},
      {"smiles": "O=C(N[C@@H]1CCN(Cc2ccc3ccccc3c2)C1)c1ccc(-c2ccc(F)cc2)cc1", "Ki": 1840},
      {"smiles": "O=C(N[C@@H]1CCN(Cc2ccc3ccccc3c2)C1)c1ccc(Br)cc1", "Ki": 103},
      {"smiles": "COc1cc(OC)cc(C(=O)N[C@@H]2CCN(Cc3ccc4ccccc4c3)C2)c1", "Ki": 7},
      {"smiles": "COc1cc(OC)cc(C(=O)N[C@@H]2CCN(C/C=C/c3ccccc3)C2)c1", "Ki": 17},
      {"smiles": "O=C(N[C@@H]1CCN(Cc2ccc3ccccc3c2)C1)c1ccc(-c2ccc(C(F)(F)F)cc2)s1", "Ki": 3080},
      {"smiles": "COc1cc(OC)cc(C(=O)N[C@@H]2CCN(Cc3ccc4c(c3)OCO4)C2)c1", "Ki": 61.8},
      {"smiles": "COc1cc(NC(=O)CC2CCCN(Cc3ccc4ccccc4c3)C2)cc(OC)c1", "note": "(configuration not stated)", "Ki": 1690},
      {"smiles": "O=C(COc1ccc(Cl)cc1)N[C@@H]1CCN(Cc2ccc3ccccc3c2)C1", "Ki": 271},
      {"smiles": "O=C(N[C@@H]1CCN(Cc2ccc3ccccc3c2)C1)c1ccc(Br)s1", "Ki": 202},
      {"smiles": "O=C(COc1ccc(Cl)cc1)N1CCCC12CCCN(Cc1ccc3ccccc3c1)C2", "note": "(configuration not stated)", "Ki": 2610},
      {"smiles": "COc1cccc(-c2ccc(C(=O)N[C@@H]3CCN(Cc4ccc5ccccc5c4)C3)cc2)c1", "Ki": 4190},
      {"smiles": "O=C(N[C@@H]1CCN(Cc2ccc3ccccc3c2)C1)c1ccc(F)c(Cl)c1", "Ki": 136},
      {"smiles": "O=C(c1ccc(F)c(Cl)c1)N1CCC2(CCCN(Cc3ccc4c(c3)OCO4)C2)C1", "note": "(configuration not stated)", "Ki": 2500},
      {"smiles": "Cc1ccc2c(C)c(C(=O)N[C@@H]3CCN(Cc4ccc5ccccc5c4)C3)oc2c1", "Ki": 2640},
      {"smiles": "O=C(N[C@@H]1CCN(Cc2ccc3ccccc3c2)C1)c1ccc(F)c(F)c1", "Ki": 208},
      {"smiles": "COc1cc(OC)cc(C(=O)N2CCC3(CCCN(Cc4ccc5ccccc5c4)C3)C2)c1", "note": "(configuration not stated)", "Ki": 330},
      {"smiles": "O=C(N[C@@H]1CCN(Cc2ccc3ccccc3c2)C1)c1ccccc1", "Ki": 448},
      {"smiles": "O=C(/C=C/c1ccc(F)cc1)N[C@@H]1CCN(Cc2ccc3ccccc3c2)C1", "Ki": 936},
      {"smiles": "COc1cc(OC)cc(C(=O)NC[C@H]2CCN(Cc3ccc4ccccc4c3)C2)c1", "Ki": 105}
    ]}
  ]
}
